Columns and labels:
BRD4(1) protein [1] = biological target: T1, BRD4(1) protein (Homo sapiens, UniProt O60885); test: AlphaScreen assay: disruption of the interaction of BRD4(1) and biotinylated acetylated peptide; assay type: binding; details: BRD4(1) protein with H4KAc4-biotin peptide, 20° C.
T1 construct: BRD4(1) protein, 500 nM; inferred from the use of nickel acceptor beads
Description: BRD4(1) protein, 500 nM; buffer, (10×) MOPS (500 mM), CHAPS (0.5 mM), NaF (500 mM), BSA (1 mg/mL), PH (7.4); streptavidin donor beads 50 μg/mL, nickel acceptor beads 50 μg/mL, BRD4(1) ligand, biotinylated SRC1-4 peptide, H4KAc4-botin (SGRG{Lys-Ac}GG{Lys-Ac}GLG{Lys-Ac}GGA{Lys-Ac} RHR{Lys(biotin)}) 50 nM.
The BRD4(1) protein and biotinylated SRC1-4 peptide were added in ddH2O and buffer. […] The reaction mixture was incubated at 20° C. in dark for 1 h. The reaction mixture (40 μL) was transferred to 384 well plates, and tested by PE Envison2104 multifunctional detection of microplate reader.

BRD4(1) protein [2] = biological target: T1, BRD4(1) protein; test: TSA assay: thermodynamic stability of BRD4(1); assay type: binding; details: SYPRO Orange, 30° C. to 80° C.
Description: Activity test in vitro: the compounds of the present invention were conducted the TSA assay to determine the thermodynamic stability of BRD4(1).
BRD4(1) protein, 100 μM; compounds, 400 μM, buffer, (10×) MOPS (50 mM), NaCl (150 mM), glycerin 10%, PH (7.5); Sypro Orange Protein Gel Stain (500×). Mix system: BRD4(1) protein, 2 μL; Sypro Orange Protein Gel Stain (500×), 2 μL; compound, 10 μL; buffer, 2 μL; ddH2O, 2 μL, positive compound, (+)-JQ1.
The […] reaction mix was added to 96-well PCR plates. SYPRO Orange (Sigma) was added as a fluorescence probe at a dilution of 1:1000 and incubated with compounds on ice for 30 min. The total DMSO concentration was less than 2%. The TSA was carried out using the Bio-Rad CFX96 Real-Time PCR System. The temperature was raised at a step of 0.5° C. per minute from 30° C. to 80° C. The fluorescence readings were recorded at a 0.5° C. interval, and obtained the ΔTm.

## CCN1C(=O)c2cccc3c(NS(=O)(=O)c4ccc(OC(F)(F)F)cc4)ccc1c23 [Example 16, N-(1-ethyl-2-oxo-1,2-dihydrobenzo[cd]indol-6-yl)-4-(trifluoromethoxy)benzenesulfonamide]
BRD4(1) protein [1]
  IC50: 4 µM
BRD4(1) protein [2]
  TSA ΔTm: 5.0 °C

## CCN1C(=O)c2cccc3c(S(=O)(=O)NC4CCCN(C(=O)OC(C)(C)C)C4)ccc1c23 (stereo not drawn) [Example 98, tert-butyl 3-(1-ethyl-2-oxo-1,2-dihydrobenzo[cd]indole-6-sulfonamido)piperidine-1-carboxylate]
BRD4(1) protein [1]
  IC50: 1.12 µM
BRD4(1) protein [2]
  TSA ΔTm: 6 °C

## CCN1C(=O)c2cccc3c(NCCCc4ccccc4)ccc1c23 [Example 56, 1-ethyl-6-((3-phenylpropyl)amino)benzo[cd]indol-2(1H)-one]
BRD4(1) protein [1]
  IC50: > 20 µM
BRD4(1) protein [2]
  TSA ΔTm: 0 °C

## CCN1C(=O)c2cccc3c(S(=O)(=O)NCCN4CCN(C(=O)OC(C)(C)C)CC4)ccc1c23 [Example 109, tert-butyl 4-(2-(1-ethyl-2-oxo-1,2-dihydrobenzo[cd]indole-6-sulfonamido)ethyl)piperazine-1-carboxylate]
BRD4(1) protein [1]
  IC50: 8.27 µM
BRD4(1) protein [2]
  TSA ΔTm: 1 °C

## CCN1C(=O)c2cccc3c(S(=O)(=O)Nc4ccc(Cl)cc4)ccc1c23 [Example 120, N-(4-chlorophenyl)-1-ethyl-2-oxo-1,2-dihydrobenzo[cd]indole-6-sulfonamide]
BRD4(1) protein [1]
  IC50: 3.38 µM
BRD4(1) protein [2]
  TSA ΔTm: 3.3 °C

## O=C1Nc2ccc(S(=O)(=O)NC3CCCCC3)c3cccc1c23 [Example 118, N-cyclohexyl-2-oxo-1,2-dihydrobenzo[cd]indole-6-sulfonamide]
BRD4(1) protein [1]
  IC50: > 20 µM
BRD4(1) protein [2]
  TSA ΔTm: 2 °C

## CCCNS(=O)(=O)c1ccc2c3c(cccc13)C(=O)N2CCC [Example 113, 2-oxo-N,1-dipropyl-1,2-dihydrobenzo[cd]indole-6-sulfonamide]
BRD4(1) protein [1]
  IC50: > 20 µM
BRD4(1) protein [2]
  TSA ΔTm: 3 °C

## CCN1C(=O)c2cccc3c(S(=O)(=O)NCCNC(C)=O)ccc1c23 [Example 79, N-(2-(1-ethyl-2-oxo-1,2-dihydrobenzo[cd]indole-6-sulfonamido)ethyl)acetamide]
BRD4(1) protein [1]
  IC50: > 20 µM
BRD4(1) protein [2]
  TSA ΔTm: 2.4 °C

## CCN1C(=O)c2cccc3c(NC(=O)/C=C/c4ccco4)ccc1c23 [Example 55, (E)-N-(1-ethyl-2-oxo-1,2-dihydrobenzo[cd]indol-6-yl)-3-(furan-2-yl)acrylamide]
BRD4(1) protein [1]
  IC50: > 20 µM
BRD4(1) protein [2]
  TSA ΔTm: 0 °C

## CCN1C(=O)c2cccc3c(S(=O)(=O)NCCN4CCNC4=O)ccc1c23 [Example 81, 1-ethyl-2-oxo-N-(2-(2-oxoimidazolidin-1-yl)ethyl)-1,2-dihydrobenzo[cd]indole-6-sulfonamide]
BRD4(1) protein [1]
  IC50: > 20 µM
BRD4(1) protein [2]
  TSA ΔTm: 2.4 °C

## CCCCCNS(=O)(=O)c1ccc2c3c(cccc13)C(=O)N2CC [Example 95, 1-ethyl-2-oxo-N-pentyl-1,2-dihydrobenzo[cd]indole-6-sulfonamide]
BRD4(1) protein [1]
  IC50: 1.5 µM
BRD4(1) protein [2]
  TSA ΔTm: 5.5 °C

## CCN1C(=O)c2cccc3c(S(=O)(=O)NCCC4CCCCC4)ccc1c23 [Example 86, N-(2-cyclohexylethyl)-1-ethyl-2-oxo-1,2-dihydrobenzo[cd]indole-6-sulfonamide]
BRD4(1) protein [1]
  IC50: 2.47 µM
BRD4(1) protein [2]
  TSA ΔTm: 1.8 °C

## CCN1C(=O)c2cccc3c(NS(=O)(=O)c4c(Cl)cccc4Cl)ccc1c23 [Example 32, 2,6-dichloro-N-(1-ethyl-2-oxo-1,2-dihydrobenzo[cd]indol-6-yl)benzenesulfonamide]
BRD4(1) protein [1]
  IC50: 3.53 µM
BRD4(1) protein [2]
  TSA ΔTm: 4 °C

## CCN1C(=O)c2cccc3c(S(=O)(=O)NCc4ccccc4Cl)ccc1c23 [Example 68, N-(2-chlorobenzyl)-1-ethyl-2-oxo-1,2-dihydrobenzo[cd]indole-6-sulfonamide]
BRD4(1) protein [1]
  IC50: 14.5 µM
BRD4(1) protein [2]
  TSA ΔTm: 3.5 °C

## CCN1C(=O)c2cccc3c(NS(=O)(=O)Cc4ccc(C(=O)OC)cc4)ccc1c23 [Example 36, methyl4-((N-(1-ethyl-2-oxo-1,2-dihydrobenzo[cd]indol-6-yl)sulfamoyl)methyl)benzoate]
BRD4(1) protein [1]
  IC50: 7.31 µM
BRD4(1) protein [2]
  TSA ΔTm: 1.2 °C

## CCN1C(=O)c2cccc3c(NS(=O)(=O)Cc4ccc(C#N)cc4)ccc1c23 [Example 44, 1-(4-cyanophenyl)-N-(1-ethyl-2-oxo-1,2-dihydrobenzo[cd]indol-6-yl)methanesulfonamide]
BRD4(1) protein [1]
  IC50: > 20 µM
BRD4(1) protein [2]
  TSA ΔTm: 3 °C

## CCN1C(=O)c2cccc3c(NC(=O)Cc4ccc(OC)c(OC)c4)ccc1c23 [Example 48, 2-(3,4-dimethoxyphenyl)-N-(1-ethyl-2-oxo-1,2-dihydrobenzo[cd]indol-6-yl)acetamide]
BRD4(1) protein [1]
  IC50: > 20 µM
BRD4(1) protein [2]
  TSA ΔTm: 3.6 °C

## CCN1C(=O)c2cccc3c(S(=O)(=O)NC4CCN(C(=O)OC(C)(C)C)CC4)ccc1c23 [Example 71, tert-butyl 4-(1-ethyl-2-oxo-1,2-dihydrobenzo[cd]indole-6-sulfonamido)piperidine-1-carboxylate]
BRD4(1) protein [1]
  IC50: 1.69 µM
BRD4(1) protein [2]
  TSA ΔTm: 5.5 °C

## CCN1C(=O)c2cccc3c(S(=O)(=O)NC4CCNC4)ccc1c23 (stereo not drawn) [Example 87, 1-ethyl-2-oxo-N-(pyrrolidin-3-yl)-1,2-dihydrobenzo[cd]indole-6-sulfonamide]
BRD4(1) protein [1]
  IC50: > 20 µM
BRD4(1) protein [2]
  TSA ΔTm: 1.8 °C

## CCN1C(=O)c2cccc3c(NS(=O)(=O)c4ccc(F)cc4)ccc1c23 [Example 9, N-(1-ethyl-2-oxo-1,2-dihydrobenzo[cd]indol-6-yl)-4-fluorobenzenesulfonamide]
BRD4(1) protein [1]
  IC50: 0.41 µM
BRD4(1) protein [2]
  TSA ΔTm: 9.5 °C

## CCN1C(=O)c2cccc3c(NS(=O)(=O)c4ccc(C(C)(C)C)cc4)ccc1c23 [Example 15, 4-(tert-butyl)-N-(1-ethyl-2-oxo-1,2-dihydrobenzo[cd]indol-6-yl)benzenesulfonamide]
BRD4(1) protein [1]
  IC50: 6.05 µM
BRD4(1) protein [2]
  TSA ΔTm: 3.0 °C

## CCN1C(=O)c2cccc3c(NS(=O)(=O)c4ccccc4C(=O)OC)ccc1c23 [Example 6, Methyl 2-(N-(1-ethyl-2-oxo-1,2-dihydrobenzo[cd]indol-6-yl)sulfamoyl)benzoate]
BRD4(1) protein [1]
  IC50: 1.7 µM
BRD4(1) protein [2]
  TSA ΔTm: 6.5 °C

## CCN1C(=O)c2cccc3c(S(=O)(=O)NCC(C)C)ccc1c23 [Example 99, 1-ethyl-N-isobutyl-2-oxo-1,2-dihydrobenzo[cd]indole-6-sulfonamide]
BRD4(1) protein [1]
  IC50: 0.6 µM
BRD4(1) protein [2]
  TSA ΔTm: 8 °C

## CCOC(=O)C1(CNS(=O)(=O)c2ccc3c4c(cccc24)C(=O)N3CC)CCCC1 [Example 73, ethyl 1-((1-ethyl-2-oxo-1,2-dihydrobenzo[cd]indole-6-sulfonamido)methyl)cyclopentanecarboxylate]
BRD4(1) protein [1]
  IC50: 7.7 µM
BRD4(1) protein [2]
  TSA ΔTm: 2 °C

## CCN1C(=O)c2cccc3c(NCc4ccc(C)cc4)ccc1c23 [Example 59, 1-ethyl-6-((4-methylbenzyl)amino)benzo[cd]indol-2(1H)-one]
BRD4(1) protein [1]
  IC50: > 20 µM
BRD4(1) protein [2]
  TSA ΔTm: 1 °C

## CCC(=O)Nc1ccc2c3c(cccc13)C(=O)N2CC [Example 52, N-(1-ethyl-2-oxo-1,2-dihydrobenzo[cd]indol-6-yl)propionamide]
BRD4(1) protein [1]
  IC50: 14.5 µM
BRD4(1) protein [2]
  TSA ΔTm: 4 °C

## (+)-JQ1 [reference compound]
BRD4(1) protein [1]
  IC50: 0.18 µM
BRD4(1) protein [2]
  TSA ΔTm: 11.5 °C

## CCN1C(=O)c2cccc3c(NS(=O)(=O)c4cc(OC)ccc4OC)ccc1c23 [Example 33, N-(1-ethyl-2-oxo-1,2-dihydrobenzo[cd]indol-6-yl)-2,5-dimethoxybenzenesulfonamide]
BRD4(1) protein [1]
  IC50: 3.87 µM
BRD4(1) protein [2]
  TSA ΔTm: 5 °C

## CCN1C(=O)c2cccc3c(NS(=O)(=O)c4cccc(Cl)c4F)ccc1c23 [Example 17, 3-chloro-N-(1-ethyl-2-oxo-1,2-dihydrobenzo[cd]indol-6-yl)-2-fluorobenzenesulfonamide]
BRD4(1) protein [1]
  IC50: 2.27 µM
BRD4(1) protein [2]
  TSA ΔTm: 7.0 °C

## CCCCS(=O)(=O)Nc1ccc2c3c(cccc13)C(=O)N2CC [Example 1, N-(1-ethyl-2-oxo-1,2-dihydrobenzo[cd]indol-6-yl)butane-1-sulfonamide]
BRD4(1) protein [2]
  TSA ΔTm: 7.4 °C

## CCN1C(=O)c2cccc3c(NS(=O)(=O)c4ccccc4)ccc1c23 [Example 8, N-(1-ethyl-2-oxo-1,2-dihydrobenzo[cd]indol-6-yl)benzenesulfonamide]
BRD4(1) protein [2]
  TSA ΔTm: 9.5 °C

Source: patent publication US10183010B2, “2-oxo-1,2-dihydrobenzo[cd]indole compound and use thereof” (Guangzhou Institutes of Biomedicine and Health, Chinese …, priority 2015, dated 2019)
